According to US20160264593A1 (priority 2013, published 2016):
Values joined by “and” are separate entries in the source; they are usually repeats but may differ in a detail not shown here. Equal entries are not always repeated. Where two headings read alike, the source gives them in different places.

How the values were obtained:
[1] = tested on: PP2A; test: PP2A activity in mouse livers after IP dosing (PP2A immunoprecipitation phosphatase assay, malachite green); assay type: in vivo, Balb/c mice; conditions: liver
Method: (§1) Coomassie (Bradford) Protein Assay Kit (Pierce); PP2A Immunoprecipitation Phosphatase Assay Kit (Millipore); Lysate preparation for low endogenous phosphate: 20 mM imidazole-HCl, 2 mM EDTA, 2 mM EGTA, 1 mM PMSF, 1 mM benzamidine, 10 ug/ml each of aprotinin, leupeptin, antipain, soybean trypsin inhibitor; Normal Mouse IgG (Millipore); Okadaic acid (OA) (Tocris); DMSO (Sigma).
(§2) • Species: Mus Musculus • Strain: Balb/c mice • Age: 6-8 weeks • Sex: female • Body weight: 18-22 g • Vendor: Shanghai Laboratory Animal Center, Shanghai, China; • Number of animals: 66 Balb/c mice plus spare
(§3) The mice were kept in laminar flow rooms at constant temperature and humidity with 4 animals in each cage. • Temperature: 20-25 • Humidity: 40-70%. • Light cycle: 12 hours light and 12 hours dark. • Cages: Made of polycarbonate. The size is 29 cm×17.5 cm×12 cm (L×w×H). The bedding material is wood debris, which is changed once per week. • Diet: Animals had free access to irradiation sterilized dry granule food during the entire study period. • Water: Animals had free access to sterile drinking water. • Cage identification: the identification labels for each cage contained the following information: number of animals, sex, strain, date arrival, treatment, study number, group number, and the starting date of the treatment. • Animal identification: Animals were marked by ear punch.
(§4) All the procedures related to animal handling, care, and the treatment in this study were performed according to guidelines approved by the Institutional Animal Care and Use Committee (IACUC) of WuXi AppTec (Shanghai), following the guidance of the Association for Assessment and Accreditation of Laboratory Animal Care (AAALAC). At the time of routine monitoring, the animals were checked and recorded for any effects of tumor growth on normal behavior such as mobility, food and water consumption (by looking only), body weight gain/loss, eye/hair matting and any other abnormal effect.
(§5) 1. Proper amount of the compounds were weighed. 2. The compounds were dissolved in 4% sterile sodium bicarbonate. 3. All of the compounds should be well dissolved and clear. 4. The compounds should be kept cold once in solution and injected within an hour. 5. The mice were administered intraperitoneally according to their body weights, 20 g mouse was treated with 0.2 ml compound solution. 6. Mice were treated with vehicle and compounds according to Table 1. 7. 3 hours after the dose, 3 mice from each group were euthanized by
(§6) CO2 exposure, and the brains and left lobe of livers were taken and snap-frozen in liquid nitrogen immediately. 6 hours after the dose, the other 3 mice from each group were euthanized by CO2 exposure, and the brains and left lobe of livers were taken and snap-frozen in liquid nitrogen immediately.
(§7) Preparation of malachite green phosphate detection solution Added […] of Solution B to each 1 mL of Solution A, kept at room temperature during use. […] of mixed solution AB is used per assay well.
(§8) Diluted 125 mL Phosphate Standard (Solution C) with 1125 mL of distilled water to make 0.1 mM working solution. The solution was used to prepare a phosphate standard curve as described in the table below.
(§9) 1. 25 μL of each phosphate standards was transferred to wells of microliter plate. 2. Added 100 μL of Malachite Green Solution AB. Mixed carefully without creating bubbles. 3. Cultured for 15 minutes at RT. 4. Measured absorbance at a wavelength between 650 nm in a microliter plate reader.
(§10) 1. Dissolved 1 mg Threonine Phosphopeptide (Catalog #12-219) in 1.10 mL of distilled water to prepare a 1 mM solution. 2. Aliquot peptide solution and stored at ˜20° C. as necessary.
(§11) 1. Mouse brain or liver was homogenized using lysis buffer (25 g/L), centrifuged at 12000 g for 10 minutes at […], and the supernatants were collected. 2. The protein was quantitated, and 240 μg of mouse brain or liver lysate was taken to assay phosphatase activity. 3. […]

[2] = tested on: lung cancer (A549) cells; test: WST cell viability assay, A549; assay type: cell-based; conditions: Homo sapiens, A549, read-out: IC50 A549
[3] = tested on: PP2A; test: PP2A activity in mouse brains after IP dosing (PP2A immunoprecipitation phosphatase assay, malachite green); assay type: in vivo, Balb/c mice; conditions: brain
Method: as §1, §2, §3, §4, §5, §6, §7, §8, §9, §10, §11

[4] = tested on: breast cancer (2LMP) cells; test: WST cell viability assay, 2LMP
Excerpt: IC50 values were obtained for cytotoxicity against breast cancer (2LMP), glioblastoma (U-87) and lung cancer (A549) cells (See Table 5 and FIGS. 3-5).

[5] = tested on: glioblastoma (U-87) cells; test: WST cell viability assay, U-87 MG; assay type: cell-based; conditions: Homo sapiens, U-87 MG
[6] = high dose IP (mpk: 100 1.5, 113 2.2, 151 1.6, 157 2.0), 3 h
[7] = high dose IP (mpk: 100 1.5, 113 2.2, 151 1.6, 157 2.0), 6 h
[8] = low dose IP (mpk: 100 0.75, 113 1.1, 151 0.8, 153 0.85, 157 1.0), 3 h
[9] = low dose IP (mpk: 100 0.75, 113 1.1, 151 0.8, 153 0.85, 157 1.0), 6 h
[10] = high dose IP (mpk: 100 1.5, 113 2.2, 151 1.6, 153 1.7, 157 2.0), 3 h
[11] = high dose IP (mpk: 100 1.5, 113 2.2, 151 1.6, 153 1.7, 157 2.0), 6 h

CN1CCN(C(=O)C2C3CCC(O3)C2C(=O)O)CC1 (stereo not shown) [Compound 100, 3-(4-methylpiperazine-1-carbonyl)-7-oxa-bicyclo[2,2,1]-heptane-2-carboxylic acid]
Average Conc. (group of 3 mice) [1, 6]: 290.15 | Average Relative Activity (group, vehicle = 100) [1, 6]: 73.9 | Conc. (phosphate, single reading, per mouse) [1, 6]: 340.38 and 353.99 and 282.08 and 493.05 and 279.92 and 293.74 | Mean Conc. (per mouse) [1, 6]: 347.18 and 387.56 and 286.83 | Mean Conc. less IgG blank (per mouse) [1, 6]: 296.81 and 337.19 and 236.46 | Relative Conc. (per mouse, to vehicle) [1, 6]: 0.76 and 0.86 and 0.6 | Relative PP2A Activity (per mouse, vehicle = 100) [1, 6]: 75.64 and 85.93 and 60.26 | Average Conc. (group of 3 mice) [1, 7]: 197.91 | Average Relative Activity (group, vehicle = 100) [1, 7]: 50.5 | Conc. (phosphate, single reading, per mouse) [1, 7]: 154.46 and 167.2 and 290.5 and 323.97 and 262.21 and 291.36 | Mean Conc. (per mouse) [1, 7]: 160.83 and 307.23 and 276.79 | Mean Conc. less IgG blank (per mouse) [1, 7]: 110.45 and 256.86 and 226.41 | Relative Conc. (per mouse, to vehicle) [1, 7]: 0.28 and 0.66 and 0.58 | Relative PP2A Activity (per mouse, vehicle = 100) [1, 7]: 28.21 and 65.59 and 57.82 | Average Conc. (group of 3 mice) [1, 8]: 289.29 | Average Relative Activity (group, vehicle = 100) [1, 8]: 73.7 | Conc. (phosphate, single reading, per mouse) [1, 8]: 292.01 and 308.85 and 318.57 and 329.58 and 359.6 and 429.35 | Mean Conc. (per mouse) [1, 8]: 300.43 and 324.08 and 394.47 | Mean Conc. less IgG blank (per mouse) [1, 8]: 250.06 and 273.7 and 344.1 | Relative Conc. (per mouse, to vehicle) [1, 8]: 0.64 and 0.7 and 0.88 | Relative PP2A Activity (per mouse, vehicle = 100) [1, 8]: 63.73 and 69.75 and 87.69 | Average Conc. (group of 3 mice) [1, 9]: 316.5 | Average Relative Activity (group, vehicle = 100) [1, 9]: 80.8 | Conc. (phosphate, single reading, per mouse) [1, 9]: 391.13 and 414.88 and 358.3 and 359.17 and 328.94 and 348.8 | Mean Conc. (per mouse) [1, 9]: 403 and 358.74 and 338.87 | Mean Conc. less IgG blank (per mouse) [1, 9]: 352.63 and 308.36 and 288.5 | Relative Conc. (per mouse, to vehicle) [1, 9]: 0.9 and 0.79 and 0.74 | Relative PP2A Activity (per mouse, vehicle = 100) [1, 9]: 90.05 and 78.74 and 73.67 | IC50 [2]: 10.3 µM | Average Conc. (group of 3 mice) [3, 10]: 1176.58 | Average Relative Activity (group, vehicle = 100) [3, 10]: 80.09 | Conc. (phosphate, single reading, per mouse) [3, 10]: 1090.16 and 1146.07 and 1273.56 and 1349.24 and 1116.43 and 1122.21 | Mean Conc. (per mouse) [3, 10]: 1118.11 and 1311.40 and 1119.32 | Mean Conc. less IgG blank (per mouse) [3, 10]: 1111.75 and 1305.03 and 1112.95 | Relative Conc. (per mouse, to vehicle) [3, 10]: 0.77 (2×) and 0.90 | Relative PP2A Activity (per mouse, vehicle = 100) [3, 10]: 75.68 and 88.84 and 75.76 | Average Conc. (group of 3 mice) [3, 11]: 1430.23 | Average Relative Activity (group, vehicle = 100) [3, 11]: 102.54 | Conc. (phosphate, single reading, per mouse) [3, 11]: 1524.93 and 1576.74 and 1180.05 and 1223.91 and 1496.73 and 1617.23 | Mean Conc. (per mouse) [3, 11]: 1550.84 and 1201.98 and 1556.98 | Mean Conc. less IgG blank (per mouse) [3, 11]: 1544.47 and 1195.62 and 1550.62 | Relative Conc. (per mouse, to vehicle) [3, 11]: 1.12 (2×) and 0.87 | Relative PP2A Activity (per mouse, vehicle = 100) [3, 11]: 110.73 and 85.72 and 111.17 | Average Conc. (group of 3 mice) [3, 8]: 1143.44 | Average Relative Activity (group, vehicle = 100) [3, 8]: 77.84 | Conc. (phosphate, single reading, per mouse) [3, 8]: 1131.61 and 1148.72 and 982.91 and 1046.54 and 1270.67 and 1318.39 | Mean Conc. (per mouse) [3, 8]: 1140.17 and 1014.72 and 1294.53 | Mean Conc. less IgG blank (per mouse) [3, 8]: 1133.80 and 1008.36 and 1288.16 | Relative Conc. (per mouse, to vehicle) [3, 8]: 0.78 and 0.69 and 0.89 | Relative PP2A Activity (per mouse, vehicle = 100) [3, 8]: 77.18 and 68.64 and 87.69 | Average Conc. (group of 3 mice) [3, 9]: 1009.84 | Average Relative Activity (group, vehicle = 100) [3, 9]: 72.40 | Conc. (phosphate, single reading, per mouse) [3, 9]: 996.89 and 1024.12 and 978.81 and 1073.53 and 990.38 and 1033.52 | Mean Conc. (per mouse) [3, 9]: 1010.51 and 1026.17 and 1011.95 | Mean Conc. less IgG blank (per mouse) [3, 9]: 1004.14 and 1019.81 and 1005.59 | Relative Conc. (per mouse, to vehicle) [3, 9]: 0.73 (2×) and 0.74 | Relative PP2A Activity (per mouse, vehicle = 100) [3, 9]: 71.99 and 73.11 and 72.09 | IC50 ([4]; read-out: IC50 2LMP, WST-20131015 (first value of the cell)): 3.41 µM | IC50 ([4]; read-out: IC50 2LMP, WST-20131025 (second value of the cell)): 6.98 µM | IC50 ([5]; read-out: IC50 U-87 MG, WST-20131017 (first value of the cell)): 19.9 µM | IC50 ([5]; read-out: IC50 U-87 MG, WST-20131024 (second value of the cell)): 25.2 µM
